Test results reported in patent US11254686B1 (Corvus Pharmaceuticals, Inc., priority 2017, dated 2022).

Columns and labels:
Type in all cases: biochemical
[1] = target: adenosine A2B receptor (Homo sapiens (Human), UniProt P29275); assay: Adenosine receptor activity assay (Table 1), A2B activity; conditions: for Ratio: A2A activity to the A2B activity, A2A/A2B; for IC50: read-out: Ave A2B cAMP IC50
[2] = target: adenosine A2A receptor (Homo sapiens (Human), UniProt P29274); assay: Adenosine receptor activity assay (Table 1), A2A activity; conditions: read-out: Ave A2A cAMP IC50
[3] = target: adenosine A1 receptor (Homo sapiens (Human), UniProt P30542); assay: Adenosine receptor activity assay (Table 1), A1 cAMP
Procedure: (§1) Table 1. Compounds (e.g., Adenosine Receptor modulators) and activity assay results. The legend is as follows: A=<10 nM; B=10-50 nM; C=50-100 nM; D=100-500; and E=>500 nM. The ratio corresponds to the A2A activity to the A2B activity; or A2A/A2B.

[4] = target: adenosine A3 receptor (Homo sapiens (Human), UniProt P0DMS8); assay: Adenosine receptor activity assay (Table 1), A3 cAMP
Procedure: as §1

adenosine A3 receptor, sequence (P0DMS8 whole entry): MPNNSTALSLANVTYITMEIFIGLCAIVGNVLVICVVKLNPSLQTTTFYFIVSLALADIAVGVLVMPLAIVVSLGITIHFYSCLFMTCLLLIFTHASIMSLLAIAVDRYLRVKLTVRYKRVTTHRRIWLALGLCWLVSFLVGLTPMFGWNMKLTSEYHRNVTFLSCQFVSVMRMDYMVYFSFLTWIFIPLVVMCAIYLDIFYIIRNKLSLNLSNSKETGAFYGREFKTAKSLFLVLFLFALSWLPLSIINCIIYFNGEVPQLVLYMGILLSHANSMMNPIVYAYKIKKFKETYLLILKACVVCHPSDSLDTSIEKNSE
adenosine A1 receptor, sequence (P30542 whole entry): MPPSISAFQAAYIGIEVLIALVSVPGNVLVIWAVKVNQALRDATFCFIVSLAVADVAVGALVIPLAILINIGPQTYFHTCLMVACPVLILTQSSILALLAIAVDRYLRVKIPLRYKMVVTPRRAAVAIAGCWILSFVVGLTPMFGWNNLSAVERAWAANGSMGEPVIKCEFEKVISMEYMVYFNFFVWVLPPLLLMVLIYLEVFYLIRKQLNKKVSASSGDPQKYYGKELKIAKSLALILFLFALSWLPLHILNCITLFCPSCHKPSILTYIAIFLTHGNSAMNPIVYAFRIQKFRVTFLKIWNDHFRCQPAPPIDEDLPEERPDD
adenosine A2A receptor, sequence (P29274 whole entry): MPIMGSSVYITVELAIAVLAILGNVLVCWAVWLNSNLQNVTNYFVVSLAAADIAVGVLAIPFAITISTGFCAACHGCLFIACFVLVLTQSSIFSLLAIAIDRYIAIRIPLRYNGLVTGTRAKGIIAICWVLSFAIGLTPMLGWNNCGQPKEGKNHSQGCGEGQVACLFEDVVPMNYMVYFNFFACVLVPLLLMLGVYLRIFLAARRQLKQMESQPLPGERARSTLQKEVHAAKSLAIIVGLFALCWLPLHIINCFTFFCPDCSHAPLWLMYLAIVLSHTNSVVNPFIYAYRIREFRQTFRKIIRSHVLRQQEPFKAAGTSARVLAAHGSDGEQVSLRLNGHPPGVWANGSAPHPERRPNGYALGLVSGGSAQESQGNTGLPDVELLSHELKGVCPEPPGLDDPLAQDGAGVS
adenosine A2B receptor, sequence (P29275 whole entry): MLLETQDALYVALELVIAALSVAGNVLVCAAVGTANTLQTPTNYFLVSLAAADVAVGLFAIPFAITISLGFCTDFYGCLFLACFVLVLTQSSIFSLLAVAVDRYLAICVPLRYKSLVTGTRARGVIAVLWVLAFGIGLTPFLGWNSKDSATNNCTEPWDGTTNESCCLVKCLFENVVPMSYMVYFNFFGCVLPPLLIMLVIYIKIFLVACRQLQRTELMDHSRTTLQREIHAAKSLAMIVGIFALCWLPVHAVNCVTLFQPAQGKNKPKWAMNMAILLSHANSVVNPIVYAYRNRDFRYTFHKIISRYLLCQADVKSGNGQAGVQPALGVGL

Row | Ratio [1] | IC50 [1] [nM] | IC50 [2] [nM] | IC50 [3] [nM] | IC50 [4] [nM] | Structure (SMILES)
1 | 0.72 | 10 to 50 | 10 to 50 | > 500 | > 500 | Cc1csc2c(C(=O)NCc3cccnc3)nc(N[C@@H](C)c3ccccn3)nc12 [Example Z458, (S)-7-Methyl-2-((1-(pyridin-2-yl)ethyl)amino)-N-(pyridin-3-ylmethyl)thieno[3,2-d]pyrimidine-4-carboxamide]
2 | 2.40 | 10 to 50 | 10 to 50 | > 500 | > 500 | Cc1csc2c(C(=O)N3CCCC3)nc(N[C@@H](C)c3ccccn3)nc12 [Example Z459, (S)-(7-methyl-2-((1-(pyridin-2-yl)ethyl)amino)thieno[3,2-d]pyrimidin-4-yl)(pyrrolidin-1-yl)methanone]
3 | 3.15 | 10 to 50 | 10 to 50 | > 500 | 50 to 100 | Cc1cc2nc(N[C@@H](C)c3ccccn3)nc(C(=O)NCc3ccccn3)c2s1 [Example Z461, (S)-6-Methyl-2-((1-(pyridin-2-yl)ethyl)amino)-N-(pyridin-2-ylmethyl)thieno[3,2-d]pyrimidine-4-carboxamide]
4 | 2.70 | 10 to 50 | 50 to 100 | > 500 | 50 to 100 | Cc1cc2nc(N[C@@H](C)c3ccccn3)nc(C(=O)NCc3cccnc3)c2s1 [Example Z462, (S)-6-Methyl-2-((1-(pyridin-2-yl)ethyl)amino)-N-(pyridin-3-ylmethyl)thieno[3,2-d]pyrimidine-4-carboxamide]
5 | 4.90 | 10 to 50 | 100 to 500 | > 500 | 50 to 100 | COC[C@@H]1CCN(C(=O)c2nc(N[C@@H](C)c3ccccn3)nc3cc(C)sc23)C1 [Example Z467, ((R)-3-(Methoxymethyl)pyrrolidin-1-yl)(6-methyl-2-(((S)-1-(pyridin-2-yl)ethyl)amino)thieno[3,2-d]pyrimidin-4-yl)methanone]
6 | 24.67 | 10 to 50 | > 500 | > 500 | > 500 | COC[C@H]1CCN(C(=O)c2nc(N[C@@H](C)c3ccccn3)nc3cc(C)sc23)C1 [Example Z468, ((S)-3-(Methoxymethyl)pyrrolidin-1-yl)(6-methyl-2-(((S)-1-(pyridin-2-yl)ethyl)amino)thieno[3,2-d]pyrimidin-4-yl)methanone]
7 | 36.71 | 10 to 50 | > 500 | > 500 | > 500 | COc1ccc(CNC(=O)c2nc(N[C@@H](C)c3ccccn3)nc3cc(C)sc23)cn1 [Example Z469, (S)—N-((6-Methoxypyridin-3-yl)methyl)-6-methyl-2-((1-(pyridin-2-yl)ethyl)amino)thieno[3,2-d]pyrimidine-4-carboxamide]
8 | 20.60 | 10 to 50 | > 500 | > 500 | > 500 | Cc1cc2nc(N[C@@H](C)c3cncc(F)c3)nc(C(=O)N3CC[C@H](NC(=O)OCc4ccccc4)C3)c2s1 [Example Z473, Benzyl ((S)-1-(2-(((S)-1-(5-fluoropyridin-3-yl)ethyl)amino)-6-methylthieno[3,2-d]pyrimidine-4-carbonyl)pyrrolidin-3-yl)carbamate]
9 | 7.45 | 10 to 50 | 100 to 500 | > 500 | > 500 | Cc1cc2nc(N[C@@H](C)c3cncc(F)c3)nc(C(=O)N3CC(CNC(=O)OC(C)(C)C)C3)c2s1 [Example Z475, tert-Butyl (S)-((1-(2-((1-(5-fluoropyridin-3-yl)ethyl)amino)-6-methylthieno[3,2-d]pyrimidine-4-carbonyl)azetidin-3-yl)methyl)carbamate]
10 | 5.27 | 10 to 50 | 100 to 500 | > 500 | > 500 | Cc1cc2nc(N[C@@H](C)c3ccccn3)nc(C(=O)N3CC(CNC(=O)OC(C)(C)C)C3)c2s1 [Example Z476, tert-Butyl (S)-((1-(6-methyl-2-((1-(pyridin-2-yl)ethyl)amino)thieno[3,2-d]pyrimidine-4-carbonyl)azetidin-3-yl)methyl)carbamate]
11 | 9.73 | 10 to 50 | 100 to 500 | 50 to 100 | 50 to 100 | COc1ccc(CNC(=O)c2nc(N[C@@H](C)c3ccccn3)nc3cc(C)sc23)cc1 [Example Z477, (S)—N-(4-Methoxybenzyl)-6-methyl-2-((1-(pyridin-2-yl)ethyl)amino)thieno[3,2-d]pyrimidine-4-carboxamide]
12 | 167.42 | 10 to 50 | > 500 | > 500 | > 500 | Cc1cc2nc(N[C@@H](C)c3cncc(F)c3)nc(C(=O)N3CC(CN)C3)c2s1 [Example Z478, (S)-(3-(Aminomethyl)azetidin-1-yl)(2-((1-(5-fluoropyridin-3-yl)ethyl)amino)-6-methylthieno[3,2-d]pyrimidin-4-yl)methanone]
13 | 96.36 | 10 to 50 | > 500 | > 500 | > 500 | Cc1cc2nc(N[C@@H](C)c3ccccn3)nc(C(=O)N3CC(CN)C3)c2s1 [Example Z479, (S)-(3-(Aminomethyl)azetidin-1-yl)(6-methyl-2-((1-(pyridin-2-yl)ethyl)amino)thieno[3,2-d]pyrimidin-4-yl)methanone]
14 | 47.68 | 10 to 50 | > 500 | > 500 | > 500 | Cc1cc2nc(N[C@@H](C)c3ccccn3)nc(C(N)=O)c2s1 [Example Z480, (S)-6-Methyl-2-((1-(pyridin-2-yl)ethyl)amino)thieno[3,2-d]pyrimidine-4-carboxamide]
15 | 111.93 | 10 to 50 | > 500 | > 500 | > 500 | Cc1cc2nc(N[C@@H](C)c3cncc(F)c3)nc(C(=O)N3CC(N(C)C)C3)c2s1 [Example Z481, (S)-(3-(Dimethylamino)azetidin-1-yl)(2-((1-(5-fluoropyridin-3-yl)ethyl)amino)-6-methylthieno[3,2-d]pyrimidin-4-yl)methanone]
16 | 30.60 | 10 to 50 | 100 to 500 | > 500 | > 500 | COC1(C)CN(C(=O)c2nc(N[C@@H](C)c3ccccn3)nc3cc(C)sc23)C1 [Example Z483, (S)-(3-Methoxy-3-methylazetidin-1-yl)(6-methyl-2-((1-(pyridin-2-yl)ethyl)amino)thieno[3,2-d]pyrimidin-4-yl)methanone]
17 | 8.16 | 10 to 50 | 100 to 500 | 100 to 500 | > 500 | Cc1cc2nc(N[C@@H](C)c3cncc(F)c3)nc(C(=O)NCCC3CN(C(=O)OC(C)(C)C)C3)c2s1 [Example Z485, tert-Butyl (S)-3-(2-(2-((1-(5-fluoropyridin-3-yl)ethyl)amino)-6-methylthieno[3,2-d]pyrimidine-4-carboxamido)ethyl)azetidine-1-carboxylate]
18 | 147.08 | < 10 | > 500 | > 500 | > 500 | CC(=O)Nc1ccc(CCNC(=O)c2nc(N[C@@H](C)c3cncc(F)c3)nc3cc(C)sc23)cc1 [Example Z488, (S)—N-(4-Acetamidophenethyl)-2-((1-(5-fluoropyridin-3-yl)ethyl)amino)-6-methylthieno[3,2-d]pyrimidine-4-carboxamide]
19 | 365.84 | 10 to 50 | > 500 | > 500 | > 500 | Cc1cc2nc(N[C@@H](C)c3cncc(F)c3)nc(C(=O)NCC[C@@H]3CCNC3)c2s1 [Example Z489, 2-(((S)-1-(5-Fluoropyridin-3-yl)ethyl)amino)-6-methyl-N-(2-((S)-pyrrolidin-3-yl)ethyl)thieno[3,2-d]pyrimidine-4-carboxamide]
20 | 10.96 | 10 to 50 | 100 to 500 | > 500 | > 500 | Cc1cc2nc(N[C@@H](C)c3cncc(F)c3)nc(C(=O)N3CC(CNC(=O)C(C)(C)C)C3)c2s1 [Example Z490, (S)—N-((1-(2-((1-(5-Fluoropyridin-3-yl)ethyl)amino)-6-methylthieno[3,2-d]pyrimidine-4-carbonyl)azetidin-3-yl)methyl)pivalamide]
21 | 86.94 | 10 to 50 | > 500 | > 500 | > 500 | Cc1cc2nc(N[C@@H](C)c3cncc(F)c3)nc(C(=O)N3CC[C@@H](NC(=O)OCc4ccccc4)C3)c2s1 [Example Z491, Benzyl ((R)-1-(2-(((S)-1-(5-fluoropyridin-3-yl)ethyl)amino)-6-methylthieno[3,2-d]pyrimidine-4-carbonyl)pyrrolidin-3-yl)carbamate]
22 | 8.25 | 10 to 50 | 100 to 500 | > 500 | 10 to 50 | Cc1cc2nc(N[C@@H](C)c3ccccn3)nc(C(=O)NCc3nccs3)c2s1 [Example Z492, (S)-6-Methyl-2-((1-(pyridin-2-yl)ethyl)amino)-N-(thiazol-2-ylmethyl)thieno[3,2-d]pyrimidine-4-carboxamide]
23 | 146.92 | < 10 | 100 to 500 | > 500 | > 500 | Cc1cc2nc(N[C@@H](C)c3cncc(F)c3)nc(C(=O)N3CC(CO)C3)c2s1 [Example Z494, (S)-(2-((1-(5-Fluoropyridin-3-yl)ethyl)amino)-6-methylthieno[3,2-d]pyrimidin-4-yl)(3-(hydroxymethyl)azetidin-1-yl)methanone]
